Measurements from patent US20250195487A1, “FORMULATIONS OF A CSF-1R INHIBITOR” (Deciphera Pharmaceuticals, LLC, priority 2023, published 2025).
Structures can show the parent of a compound that is named as a salt.

Legend:
[1] = Solubility determination in deionized water; format: physicochemical; settings: ultrasonic treatment; for Solubility S: about 2 mg sample
[2] = Hygroscopic behavior test by dynamic vapor sorption (DVS); format: physicochemical; settings: for hygroscopic property, in words: dependence on relative humidity; for hygroscopic weight gain: 25° C., DVS
Description: The experimental method for characterizing the acid salt of the crystalline compound of the formula (I) by using dynamic vapor sorption (DVS) comprises the steps of putting a small amount of powder of the acid salt of the crystalline compound of the formula (I) in a precision sample tray in coordination with the instrument, and then sending to the instrument for testing after loading the samples. The model of all the instruments used in the dynamic vapor sorption in the present invention is DVS Intrinsic, the experimental parameters are set to that nitrogen is used as the carrier gas, the constant temperature is set to 25° C., the mass percent change rate per unit time (dm/dt) is equal to 0.01%/min as the determination criteria to achieve balance, the program humidity change cycle is set to that the initial relative humidity is 0%, the relative humidity at the end point is 90%, cycle is set to twice, and every 10% R.H. changes a step.
The inventors of the present invention measured the hygroscopic weight gain results (hygroscopic weight gain/pre-hygroscopic weight*100%) of various crystalline forms at each relative humidity by using the dynamic vapor sorption method, the hygroscopicity of different crystalline compounds was evaluated, and the results obtained were as follows: […]

Row | Dissolution Phenomenon [1] | Solubility S [1] | hygroscopic weight gain ([2]; relative humidity 0.0 %) [%] | hygroscopic weight gain ([2]; relative humidity 10.0 %) [%] | hygroscopic weight gain ([2]; relative humidity 20.0 %) [%] | hygroscopic weight gain ([2]; relative humidity 30.0 %) [%] | hygroscopic weight gain ([2]; relative humidity 40.0 %) [%] | hygroscopic weight gain ([2]; relative humidity 50.0 %) [%] | hygroscopic weight gain ([2]; relative humidity 60.0 %) [%] | hygroscopic weight gain ([2]; relative humidity 70.0 %) [%] | hygroscopic weight gain ([2]; relative humidity 80.0 %) [%] | hygroscopic weight gain ([2]; relative humidity 90.0 %) [%] | hygroscopic weight gain of the crystal ([2]; relative humidity less than 80%) | SMILES | hygroscopic property, in words [2]
1 | Settled solution | S > 20 mg/mL | – | – | – | – | – | – | – | – | – | – | – | Cc1nc(NC(=O)N2CCC(C)(C)C2=O)ccc1Oc1ccnc(-c2cnn(C)c2)c1 [Citrate crystalline form I] | –
2 | Non-settling | S < 1.5 mg/mL | – | – | – | – | – | – | – | – | – | – | – | Cc1nc(NC(=O)N2CCC(C)(C)C2=O)ccc1Oc1ccnc(-c2cnn(C)c2)c1 [Free compound] | –
3 | Settled solution | S > 20 mg/mL | – | – | – | – | – | – | – | – | – | – | – | Cc1nc(NC(=O)N2CCC(C)(C)C2=O)ccc1Oc1ccnc(-c2cnn(C)c2)c1 [Fumarate crystalline form I] | –
4 | Settled solution | S > 20 mg/mL | 0.00 | 0.13 | 0.24 | 0.34 | 0.42 | 0.52 | 0.63 | 0.81 | 1.37 | 19.40 | less than 1% | Cc1nc(NC(=O)N2CCC(C)(C)C2=O)ccc1Oc1ccnc(-c2cnn(C)c2)c1 [Hydrochloride crystalline form I] | when the relative humidity was increased to 90%, the hygroscopicity of the crystal was increased significantly
5 | Settled solution | S > 20 mg/mL | – | – | – | – | – | – | – | – | – | – | – | Cc1nc(NC(=O)N2CCC(C)(C)C2=O)ccc1Oc1ccnc(-c2cnn(C)c2)c1 [Malate crystalline form I] | –
6 | Settled solution | S > 20 mg/mL | 0.00 | 0.11 | 0.18 | 0.20 | 0.24 | 0.31 | 0.88 | 8.93 | 12.44 | 23.15 | – | Cc1nc(NC(=O)N2CCC(C)(C)C2=O)ccc1Oc1ccnc(-c2cnn(C)c2)c1 [Mesylate crystalline form II] | significantly increased when the relative humidity is increased to 70%
7 | Settled solution | S > 20 mg/mL | 0.02 | 1.19 | 1.86 | 2.32 | 2.78 | 3.37 | 3.97 | 4.66 | 5.46 | 6.383 | – | Cc1nc(NC(=O)N2CCC(C)(C)C2=O)ccc1Oc1ccnc(-c2cnn(C)c2)c1 [Phosphate crystalline form I] | remains less hygroscopicity regardless of the ambient relative humidity
8 | Settled solution | S > 20 mg/mL | – | – | – | – | – | – | – | – | – | – | – | Cc1nc(NC(=O)N2CCC(C)(C)C2=O)ccc1Oc1ccnc(-c2cnn(C)c2)c1 [Sulfate crystalline form I] | –
9 | Settled solution | S > 20 mg/mL | 0.00 | 0.83 | 1.79 | 2.42 | 2.88 | 3.32 | 3.77 | 4.44 | 5.17 | 10.61 | – | Cc1nc(NC(=O)N2CCC(C)(C)C2=O)ccc1Oc1ccnc(-c2cnn(C)c2)c1 [Tartrate crystalline form I] | a good linear relationship is formed
